Consider one molecule from paper PMC8449129, “Single tracer-based protocol for broad-spectrum kinase profiling in live cells with NanoBRET” (STAR Protocols, 2021).

Common to all, as to experiment: cell-based
What all share (parameters): NanoBRET live-cell target engagement; % occupancy from displacement of tracer K10 on NanoLuc-kinase fusions, mean n=3
Conditions in all cases: HEK293, read-out: % inhibition
(BRET reads energy transfer from a luciferase to a nearby fluorophore.)

One experiment deals with TNK2 (Homo sapiens, UniProt Q07912). As for the experimental part: (§1) • 18. Prepare 10× test compounds in OptiMEM • a. Dilute the test compound to 1000× in DMSO (or the test compound solvent). […] Add 10μL per well of 10× test compound or 10μL of the DMSO control to the 96-well plates containing cells with 1× tracer. Mix on orbital shaker for 15 s at 900 rpm. • 20. Incubate the plate at 37°C + 5% CO2 incubator for 2hr. Allow plate to cool to RT for ∼15 min, then proceed to NanoBRET^TM Assay section below. • 21. Immediately before the BRET measurements, prepare 3× Complete NanoBRET^TM Nano-Glo® Substrate in OptiMEM without serum or phenol red. […] Mix gently by inverting 5–10 times in a conical tube. (The final concentration of Extracellular NanoLuc inhibitor in the 3× solution is 60 μM, for a working concentration of 20 μM.) • a. Note: 3× solutions should be used within 1.5 h after preparation. • 22. […] Incubate 2–3 min at RT. Following addition of NanoBRET^TM Nano-Glo® Substrate, measure donor emission (e.g., 450 nm) and acceptor emission (e.g., 610 nm or 630 nm) using a NanoBRET™-compatible luminometer. Fractional occupancy Quantitation • 2. Determine Fractional Occupancy with the following equation; % Occupancy = [1 – (X – Z)/( Y – Z)]∗100 • Where: • X = BRET in the presence of the test compound and tracer, • Y = BRET in the presence of the 100% BRET Control (Tracer + DMSO) • Z = BRET for the Zero BRET Control, e.g., • a. BRET from the NanoLuc Control Vector • b. BRET from Kinase/NanoLuc fusion + saturating dose of control test compound.

The target of another experiment is AKT2 (Homo sapiens, UniProt P31751). On the procedure:
as §1

The next experiment concerns the target CDK10 (Homo sapiens, UniProt Q15131). As for the experimental part: as §1
In the next experiment the target is STK16 (Homo sapiens, UniProt O75716). On the procedure: as §1
The next experiment concerns the target STK17B (Homo sapiens, UniProt O94768). As for the experimental part: as §1
The next experiment concerns the target CDK20 (Homo sapiens, UniProt Q8IZL9). On the procedure:
as §1

A further experiment has as its target CDK16 (Homo sapiens, UniProt Q00536). On the procedure: as §1
Another experiment addresses SGK1 (Homo sapiens, UniProt O00141). On the procedure:
as §1

A further experiment deals with CLK4 (Homo sapiens, UniProt Q9HAZ1). On the procedure:
as §1

A further experiment concerns the target PAK4 (Homo sapiens, UniProt O96013). As for the experimental part: as §1
A further experiment has as its target MAPK4 (Homo sapiens, UniProt P31152). On the procedure:
as §1

For the next experiment, the target named is MAP3K4 (Homo sapiens, UniProt Q9Y6R4). On the procedure: as §1
The target in another experiment is CDK4 (Homo sapiens, UniProt P11802). On the procedure:
as §1

Another experiment addresses TEK (Homo sapiens, UniProt Q02763). As for the experimental part:
as §1

Another experiment has as its target TEC (Homo sapiens, UniProt P42680). As for the experimental part:
as §1

A further experiment deals with PHKG2 (Homo sapiens, UniProt P15735). On the procedure: as §1
Another experiment addresses MYLK2 (Homo sapiens, UniProt Q9H1R3). On the procedure: as §1
Another experiment addresses IRAK4 (Homo sapiens, UniProt Q9NWZ3). As for the experimental part:
as §1

Chain of MAPK4 (P31152 whole entry): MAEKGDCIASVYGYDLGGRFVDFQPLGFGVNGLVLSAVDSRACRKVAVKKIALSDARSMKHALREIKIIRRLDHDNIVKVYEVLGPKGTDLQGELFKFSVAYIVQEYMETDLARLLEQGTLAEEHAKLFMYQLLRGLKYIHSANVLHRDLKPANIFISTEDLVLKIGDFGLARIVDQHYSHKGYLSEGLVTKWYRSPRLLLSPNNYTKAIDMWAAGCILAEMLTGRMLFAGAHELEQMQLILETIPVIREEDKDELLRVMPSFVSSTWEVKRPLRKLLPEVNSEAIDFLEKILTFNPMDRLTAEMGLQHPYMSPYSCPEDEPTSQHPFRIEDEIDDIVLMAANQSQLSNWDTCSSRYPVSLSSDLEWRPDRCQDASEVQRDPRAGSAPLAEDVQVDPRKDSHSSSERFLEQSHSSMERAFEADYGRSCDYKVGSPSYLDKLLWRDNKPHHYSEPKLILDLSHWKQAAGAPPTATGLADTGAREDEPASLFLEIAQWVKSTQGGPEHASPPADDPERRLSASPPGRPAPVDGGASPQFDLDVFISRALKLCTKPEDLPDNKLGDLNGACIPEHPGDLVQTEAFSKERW
Chain of CDK20 (Q8IZL9 whole entry): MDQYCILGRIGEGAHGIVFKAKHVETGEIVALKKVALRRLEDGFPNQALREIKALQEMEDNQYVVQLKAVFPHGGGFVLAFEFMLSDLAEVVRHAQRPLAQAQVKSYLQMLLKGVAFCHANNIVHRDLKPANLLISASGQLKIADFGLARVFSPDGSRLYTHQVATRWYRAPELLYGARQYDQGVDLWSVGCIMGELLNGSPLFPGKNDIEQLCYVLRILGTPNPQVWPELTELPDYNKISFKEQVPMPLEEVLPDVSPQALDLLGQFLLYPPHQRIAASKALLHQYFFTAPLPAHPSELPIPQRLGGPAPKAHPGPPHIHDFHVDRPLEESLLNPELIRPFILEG
Chain of TNK2 (Q07912 whole entry): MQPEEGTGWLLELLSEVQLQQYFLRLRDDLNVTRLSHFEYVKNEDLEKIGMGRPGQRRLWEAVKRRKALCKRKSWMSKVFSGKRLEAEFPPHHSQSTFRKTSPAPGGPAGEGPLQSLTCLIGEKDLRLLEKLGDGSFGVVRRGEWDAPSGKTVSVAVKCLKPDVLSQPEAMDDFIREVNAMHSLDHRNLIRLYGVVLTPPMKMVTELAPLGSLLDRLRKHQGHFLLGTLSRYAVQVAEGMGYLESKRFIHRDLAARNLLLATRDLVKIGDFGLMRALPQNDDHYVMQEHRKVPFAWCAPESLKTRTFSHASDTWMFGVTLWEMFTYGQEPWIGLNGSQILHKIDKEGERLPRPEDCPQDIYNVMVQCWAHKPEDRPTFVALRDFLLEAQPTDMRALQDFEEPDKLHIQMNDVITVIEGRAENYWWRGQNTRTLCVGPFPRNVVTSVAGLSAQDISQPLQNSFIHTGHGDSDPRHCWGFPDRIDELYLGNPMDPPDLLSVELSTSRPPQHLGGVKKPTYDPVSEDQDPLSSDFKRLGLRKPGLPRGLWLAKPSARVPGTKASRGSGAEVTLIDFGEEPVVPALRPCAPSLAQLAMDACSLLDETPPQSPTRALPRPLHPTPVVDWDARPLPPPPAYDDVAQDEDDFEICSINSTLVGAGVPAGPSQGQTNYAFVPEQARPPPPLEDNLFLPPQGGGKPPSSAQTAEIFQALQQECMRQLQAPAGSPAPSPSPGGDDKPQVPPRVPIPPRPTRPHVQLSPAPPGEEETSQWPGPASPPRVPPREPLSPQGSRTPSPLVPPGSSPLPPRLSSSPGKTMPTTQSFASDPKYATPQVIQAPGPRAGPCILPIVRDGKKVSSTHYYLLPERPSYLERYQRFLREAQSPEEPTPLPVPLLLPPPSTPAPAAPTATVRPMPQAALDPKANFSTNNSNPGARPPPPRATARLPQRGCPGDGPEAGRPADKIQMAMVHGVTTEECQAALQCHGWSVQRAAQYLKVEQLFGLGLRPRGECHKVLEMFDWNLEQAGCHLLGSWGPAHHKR
Chain of STK17B (O94768 whole entry): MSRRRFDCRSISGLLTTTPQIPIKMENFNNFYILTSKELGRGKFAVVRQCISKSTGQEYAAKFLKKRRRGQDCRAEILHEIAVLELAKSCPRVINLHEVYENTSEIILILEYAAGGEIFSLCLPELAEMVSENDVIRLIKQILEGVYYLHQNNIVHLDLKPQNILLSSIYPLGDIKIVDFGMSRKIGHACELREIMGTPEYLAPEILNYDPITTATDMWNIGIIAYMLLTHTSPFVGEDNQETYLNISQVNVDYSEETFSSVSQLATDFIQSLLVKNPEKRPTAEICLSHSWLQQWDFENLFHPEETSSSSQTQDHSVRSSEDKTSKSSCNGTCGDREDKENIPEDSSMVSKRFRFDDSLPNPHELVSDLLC
Chain of TEC (P42680 whole entry): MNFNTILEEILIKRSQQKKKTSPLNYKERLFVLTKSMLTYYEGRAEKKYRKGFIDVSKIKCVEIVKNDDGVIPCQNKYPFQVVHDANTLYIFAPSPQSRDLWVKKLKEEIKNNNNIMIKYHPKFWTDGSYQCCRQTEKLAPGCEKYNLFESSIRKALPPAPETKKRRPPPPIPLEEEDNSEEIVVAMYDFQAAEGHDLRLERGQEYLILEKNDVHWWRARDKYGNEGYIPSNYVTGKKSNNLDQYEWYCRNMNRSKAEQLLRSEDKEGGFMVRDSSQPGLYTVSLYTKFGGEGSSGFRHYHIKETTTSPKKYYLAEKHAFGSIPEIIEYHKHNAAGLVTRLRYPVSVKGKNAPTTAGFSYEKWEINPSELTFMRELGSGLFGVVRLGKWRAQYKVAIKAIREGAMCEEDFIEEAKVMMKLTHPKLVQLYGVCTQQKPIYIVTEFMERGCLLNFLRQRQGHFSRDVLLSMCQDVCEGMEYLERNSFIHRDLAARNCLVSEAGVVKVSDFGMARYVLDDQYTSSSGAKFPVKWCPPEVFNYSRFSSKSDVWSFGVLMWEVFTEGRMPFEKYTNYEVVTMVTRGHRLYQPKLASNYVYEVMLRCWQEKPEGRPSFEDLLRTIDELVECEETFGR
Chain of STK16 (O75716 whole entry): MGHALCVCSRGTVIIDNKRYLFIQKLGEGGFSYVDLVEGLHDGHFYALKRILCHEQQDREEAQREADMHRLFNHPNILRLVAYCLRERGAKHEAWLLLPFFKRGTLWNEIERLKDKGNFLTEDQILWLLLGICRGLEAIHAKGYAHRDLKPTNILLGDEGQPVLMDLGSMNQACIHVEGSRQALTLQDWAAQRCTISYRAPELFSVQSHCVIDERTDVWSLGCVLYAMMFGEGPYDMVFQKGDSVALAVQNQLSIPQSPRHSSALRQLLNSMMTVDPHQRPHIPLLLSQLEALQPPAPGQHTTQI
Chain of CDK16 (Q00536 whole entry): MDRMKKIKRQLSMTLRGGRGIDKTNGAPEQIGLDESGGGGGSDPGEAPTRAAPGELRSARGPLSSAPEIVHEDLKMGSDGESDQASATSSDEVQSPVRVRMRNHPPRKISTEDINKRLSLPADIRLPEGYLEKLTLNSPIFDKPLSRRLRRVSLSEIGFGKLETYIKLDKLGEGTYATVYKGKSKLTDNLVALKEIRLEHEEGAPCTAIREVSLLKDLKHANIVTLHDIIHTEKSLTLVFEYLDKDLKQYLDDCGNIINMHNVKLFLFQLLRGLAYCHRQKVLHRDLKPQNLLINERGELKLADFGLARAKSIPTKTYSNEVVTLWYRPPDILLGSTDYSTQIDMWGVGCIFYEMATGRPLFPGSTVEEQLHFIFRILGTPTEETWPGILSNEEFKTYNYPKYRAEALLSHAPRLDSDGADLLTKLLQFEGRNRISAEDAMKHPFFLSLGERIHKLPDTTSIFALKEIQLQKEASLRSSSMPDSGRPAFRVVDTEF
Chain of CDK4 (P11802 whole entry): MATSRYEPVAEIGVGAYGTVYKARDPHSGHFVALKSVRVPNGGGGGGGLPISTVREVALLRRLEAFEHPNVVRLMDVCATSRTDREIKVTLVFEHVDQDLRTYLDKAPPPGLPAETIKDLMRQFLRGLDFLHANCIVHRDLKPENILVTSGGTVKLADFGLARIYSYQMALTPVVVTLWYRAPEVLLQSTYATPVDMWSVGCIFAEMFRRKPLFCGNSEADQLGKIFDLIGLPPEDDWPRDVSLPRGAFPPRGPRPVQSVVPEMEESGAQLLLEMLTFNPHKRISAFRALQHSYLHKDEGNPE
Chain of MYLK2 (Q9H1R3 whole entry): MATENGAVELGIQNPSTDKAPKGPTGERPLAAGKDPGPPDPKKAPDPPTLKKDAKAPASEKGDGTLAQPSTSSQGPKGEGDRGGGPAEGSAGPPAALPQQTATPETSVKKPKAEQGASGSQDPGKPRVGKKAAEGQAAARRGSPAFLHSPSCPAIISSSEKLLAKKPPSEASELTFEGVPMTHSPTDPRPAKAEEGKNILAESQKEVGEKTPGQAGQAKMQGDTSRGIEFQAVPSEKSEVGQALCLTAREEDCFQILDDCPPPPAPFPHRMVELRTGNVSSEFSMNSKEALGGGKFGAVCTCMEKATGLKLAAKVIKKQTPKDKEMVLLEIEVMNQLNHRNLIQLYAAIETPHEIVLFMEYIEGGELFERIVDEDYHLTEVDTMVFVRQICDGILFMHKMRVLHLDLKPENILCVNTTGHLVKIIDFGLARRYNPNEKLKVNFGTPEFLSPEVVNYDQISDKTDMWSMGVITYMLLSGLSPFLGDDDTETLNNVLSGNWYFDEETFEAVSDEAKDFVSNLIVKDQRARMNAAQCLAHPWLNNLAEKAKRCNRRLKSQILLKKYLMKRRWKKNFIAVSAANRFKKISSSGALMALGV

What is called inhibition is the change of the read-out against control, counted positive when it falls. For the molecule `C[C@@H](Oc1cc(-c2cnn(C3CCNCC3)c2)cnc1N)c1c(Cl)ccc(F)c1Cl` [crizotinib], the inhibition at 1 µM was 13% on TNK2; -1% at AKT2; 8% on CDK10; -13% on STK16; 0% on STK17B; -11% at CDK20. Further, the inhibition at 1 µM at CDK16 is 2%; at SGK1, -1%; on CLK4 it was -19%; on PAK4, 1%; on MAPK4, -12%; at MAP3K4, -1%. In addition, the inhibition at 1 µM at CDK4 was 4%; at TEK, 37%; at TEC it was -7%; at PHKG2, 3%; at MYLK2 it was -16%; at IRAK4, 6%.
